Patent US10723741B1, “DNA polymerase IIIC inhibitors and use thereof” (Acurx Pharmaceuticals, LLC, priority 2018, dated 2020)
Converted amounts (≈) assume the structure as drawn. Read-outs that look alike come from different tables or passages of the source.

What was measured:
Assay type in all cases: cell-based
[1] = system: Enterococcus faecalis ATCC 29212; test: Broth microdilution MIC, E. faecalis ATCC 29212; settings: ATCC29212, broth microdilution, 37° C., 20 hours, read-out: MIC E. faecalis ATCC 29212
In short: (§1)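 Broth microdilution in strain-specific test medium with ~5.0×10^5 cfu/ml inoculum, 1% DMSO and two-fold compound dilutions from 64 to 0.0625 μg/ml. Plates were held 20 hours at 37° C in ambient air. S. pneumoniae colonies were grown beforehand on blood agar in 5% CO2.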

[2] = system: Bacillus subtilis ATCC 6633; test: Broth microdilution MIC, B. subtilis ATCC 6633; settings: ATCC6633, broth microdilution, 37° C., 20 hours, read-out: MIC B. subtilis ATCC 6633
In short: as §1

[3] = system: Staphylococcus aureus NRS384 (MRSA); test: Broth microdilution MIC, S. aureus NRS384 (MRSA); parameters: MIC NRS 384 (MRSA): unit not given here; settings: broth microdilution, 37° C., 20 hours; for MIC: Staphylococcus aureus
In short: as §1

[4] = system: Enterococcus faecium ATCC 700221 (VRE); test: Broth microdilution MIC, E. faecium ATCC 700221 (VRE); parameters: MIC E. faecium ATCC 700221 (VRE): unit: ug/mL; settings: broth microdilution, 37° C., 20 hours; for MIC: Enterococcus faecium
In short: as §1

[5] = system: Escherichia coli ATCC 25922; test: Broth microdilution MIC, E. coli ATCC 25922 (MHIIB w & w/o 4 mM EDTA); settings: broth microdilution, 37° C., 20 hours; for MIC: Escherichia coli, ATCC25922, without EDTA, read-out: MIC E. coli ATCC 25922; for MIC E. coli ATCC 25922 + 4 mM EDTA: with 4 mM EDTA
In short: as §1

[6] = system: Staphylococcus aureus ATCC 29213 (MSSA); test: Broth microdilution MIC, S. aureus ATCC 29213 (MSSA); settings: broth microdilution, 37° C., 20 hours, read-out: MIC S. aureus ATCC 29213 (MSSA)
In short: as §1

[7] = system: Streptococcus pneumoniae ATCC 49619; test: Broth microdilution MIC, S. pneumoniae ATCC 49619; settings: ATCC49619, broth microdilution, 37° C., 20 hours, read-out: MIC S. pneumoniae ATCC 49619
In short: as §1

[8] = read-out: MIC E. faecium ATCC 700221 (VRE)
[9] = S. aureus NRS 384, read-out: MIC NRS 384 (MRSA)

SMILES	MIC [1] [µg/mL]	MIC [2] [µg/mL]	MIC ([3]; read-out: MIC NRS 384 (MRSA)) [µg/mL]	MIC [4, 8] [µg/mL]	MIC [5] [µg/mL]	MIC E. coli ATCC 25922 + 4 mM EDTA [5] [µg/mL]	MIC [6] [µg/mL]	MIC [7] [µg/mL]	MIC [3, 9] [µg/mL]	MIC NRS 384 (MRSA) [3]	MIC E. faecium ATCC 700221 (VRE) [4]	MIC ([3]; MHIIB, read-out: MIC against S. aureus NRS 384 (MRSA)) [µg/mL]	MIC ([4]; MHIIB, read-out: MIC against E. faecium ATCC 700221 (VRE)) [µg/mL]
COc1cccnc1C(=O)N1CCC(n2ncc3nc(NCc4ccc(Cl)c(Cl)c4)[nH]c(=O)c32)CC1.Cl [Compound 268, 5-((3,4-Dichlorobenzyl)amino)-1-(1-(3-methoxypicolinoyl)piperidin-4-yl)-1H-pyrazolo[4,3-d]pyrimidin-7(6H)-one hydrochloride]	8	2	8	4	> 64	>64	8	4	–	–	–	–	–
CC(=O)N1CCN(CCn2ncc3nc(NCc4ccc(Cl)c(Cl)c4)[nH]c(=O)c32)CC1.Cl [Compound 64, 1-(2-(4-Acetylpiperazin-1-yl)ethyl)-5-((3,4-dichlorobenzyl)amino)-1H-pyrazolo[4,3-d]pyrimidin-7(6H)-one hydrochloride]	4	2	8	2	> 64	64	8	4	–	–	–	–	–
O=c1[nH]c(NCc2ccc(Cl)c(Cl)c2)nc2cnn(CC3COC3)c12 [Compound 118, 5-((3,4-Dichlorobenzyl)amino)-1-(oxetan-3-ylmethyl)-1H-pyrazolo[4,3-d]pyrimidin-7(6H)-one]	2 (≈ 5.26 µM)	0.5 (≈ 1.31 µM)	2 (≈ 5.26 µM)	1 (≈ 2.63 µM)	> 64	>64	2 (≈ 5.26 µM)	2 (≈ 5.26 µM)	–	–	–	–	–
O=c1[nH]c(NCc2ccc(Cl)c(Cl)c2)nc2cnn(Cc3ncccn3)c12 [Compound 114, 5-((3,4-Dichlorobenzyl)amino)-1-(pyrimidin-2-ylmethyl)-1H-pyrazolo[4,3-d]pyrimidin-7(6H)-one]	16 (≈ 39.8 µM)	2 (≈ 4.97 µM)	–	–	> 64	32	8 (≈ 19.9 µM)	4 (≈ 9.94 µM)	–	4/4	4/4	–	–
O=C(O)COCCOCCn1ncc2nc(NCc3ccc(Cl)c(Cl)c3)[nH]c(=O)c21 [Compound 187, 2-(2-(2-(5-((3,4-dichlorobenzyl)amino)-7-oxo-6,7-dihydro-1H-pyrazolo[4,3-d]pyrimidin-1-yl)ethoxy)ethoxy)acetic acid]	64 (≈ 140 µM)	64 (≈ 140 µM)	> 64	64 (≈ 140 µM)	> 64	>64	> 64	> 64	–	–	–	–	–
O=C(c1cccnc1)N1CCC(n2nc(Cl)c3nc(NCc4ccc(Cl)c(Cl)c4)[nH]c(=O)c32)CC1 [Compound 318, 3-Chloro-5-[(3,4-dichlorophenyl)methylamino]-1-[1-(pyridine-3-carbonyl)-4-piperidyl]-6H-pyrazolo[4,3-d]pyrimidin-7-one]	2 (≈ 3.75 µM)	1 (≈ 1.88 µM)	–	1 (≈ 1.88 µM)	> 64	>64	2 (≈ 3.75 µM)	4 (≈ 7.51 µM)	2 (≈ 3.75 µM)	–	–	–	–
Cc1ccncc1C(=O)N1CCC(n2ncc3nc(NCc4ccc(Cl)c(Cl)c4)[nH]c(=O)c32)CC1.Cl [Compound 267, 5-((3,4-Dichlorobenzyl)amino)-1-(1-(4-methylnicotinoyl)piperidin-4-yl)-1H-pyrazolo[4,3-d]pyrimidin-7(6H)-one hydrochloride]	4	1	4	2	> 64	>64	4	4	–	–	–	–	–

Results, then the molecule that gave them:

MIC [1] [µg/mL]	MIC [2] [µg/mL]	MIC ([3]; read-out: MIC NRS 384 (MRSA)) [µg/mL]	MIC [4, 8] [µg/mL]	MIC [5] [µg/mL]	MIC E. coli ATCC 25922 + 4 mM EDTA [5] [µg/mL]	MIC [6] [µg/mL]	MIC [7] [µg/mL]	MIC [3, 9] [µg/mL]	MIC NRS 384 (MRSA) [3]	MIC E. faecium ATCC 700221 (VRE) [4]	MIC ([3]; MHIIB, read-out: MIC against S. aureus NRS 384 (MRSA)) [µg/mL]	MIC ([4]; MHIIB, read-out: MIC against E. faecium ATCC 700221 (VRE)) [µg/mL]	SMILES
32 (≈ 87.1 µM)	8 (≈ 21.8 µM)	64 (≈ 174 µM)	16 (≈ 43.6 µM)	> 64	>64	64 (≈ 174 µM)	16 (≈ 43.6 µM)	–	–	–	–	–	CNCCn1ncc2nc(NCc3ccc(Cl)c(Cl)c3)[nH]c(=O)c21 [Compound 61, 5-((3,4-Dichlorobenzyl)amino)-1-(2-(methylamino)ethyl)-1H-pyrazolo[4,3-d]pyrimidin-7(6H)-one]
64 (≈ 174 µM)	32 (≈ 86.9 µM)	64 (≈ 174 µM)	32 (≈ 86.9 µM)	> 64	>64	64 (≈ 174 µM)	16 (≈ 43.5 µM)	–	–	–	–	–	CC(CO)n1cc2nc(NCc3ccc(Cl)c(Cl)c3)[nH]c(=O)c2n1 (stereo not drawn) [Compound 225, 5-((3,4-dichlorobenzyl)amino)-2-(1-hydroxypropan-2-yl)-2H-pyrazolo[4,3-d]pyrimidin-7(6H)-one]
8 (≈ 22.6 µM)	2 (≈ 5.66 µM)	–	4 (≈ 11.3 µM)	> 64	>64	4 (≈ 11.3 µM)	4 (≈ 11.3 µM)	4 (≈ 11.3 µM)	–	–	–	–	COCCn1nc(F)c2nc(NCc3ccc(F)c(F)c3)[nH]c(=O)c21 [Compound 308, 5-((3,4-Difluorobenzyl)amino)-3-fluoro-1-(2-methoxyethyl)-1H-pyrazolo[4,3-d]pyrimidin-7(6H)-one]
4 (≈ 9.19 µM)	2 (≈ 4.59 µM)	–	2 (≈ 4.59 µM)	> 64	>64	8 (≈ 18.4 µM)	2 (≈ 4.59 µM)	–	4/8	–	–	–	CC(=O)N1CCC(Cn2ncc3nc(NCc4ccc(Cl)c(Cl)c4)[nH]c(=O)c32)C1 (stereo not drawn) [Compound 281, 1-((1-Acetylpyrrolidin-3-yl)methyl)-5-((3,4-dichlorobenzyl)amino)-1H-pyrazolo[4,3-d]pyrimidin-7(6H)-one]
8	1	–	–	> 64	>64	4	4	–	2/2	2/2	–	–	Cl.O=c1[nH]c(NCc2ccc(Cl)c(Cl)c2)nc2cnn(CCc3ccccn3)c12 [Compound 111, 5-((3,4-Dichlorobenzyl)amino)-1-(2-(pyridin-2-yl)ethyl)-1H-pyrazolo[4,3-d]pyrimidin-7(6H)-one hydrochloride]
> 64	> 64	> 64	> 64	> 64	>64	> 64	> 64	–	–	–	–	–	Cn1ncc2nc(NCc3c(Cl)cccc3Cl)[nH]c(=O)c21 [Compound 30, 5-((2,6-Dichlorobenzyl)amino)-1-methyl-1H-pyrazolo[4,3-d]pyrimidin-7(6H)-one]
4 (≈ 10.2 µM)	2 (≈ 5.11 µM)	4 (≈ 10.2 µM)	2 (≈ 5.11 µM)	> 64	8	4 (≈ 10.2 µM)	4 (≈ 10.2 µM)	–	–	–	–	–	O=c1[nH]c(NCc2ccc(Cl)c(Cl)c2)nc2cnn(Cc3cocn3)c12 [Compound 92, 5-((3,4-Dichlorobenzyl)amino)-1-(oxazol-4-ylmethyl)-1H-pyrazolo[4,3-d]pyrimidin-7(6H)-one]
2 (≈ 4.7 µM)	0.5 (≈ 1.17 µM)	–	1 (≈ 2.35 µM)	> 64	>64	1 (≈ 2.35 µM)	4 (≈ 9.4 µM)	1 (≈ 2.35 µM)	–	–	≤ 1	≤ 1	O=c1[nH]c(NCc2ccc(Cl)c(Cl)c2)nc2c(Cl)nn(Cc3cocn3)c12 [Compound 307, 3-Chloro-5-((3,4-dichlorobenzyl)amino)-1-(oxazol-4-ylmethyl)-1H-pyrazolo[4,3-d]pyrimidin-7(6H)-one]
> 64	> 64	> 64	> 64	> 64	>64	> 64	> 64	–	–	–	–	–	O=C(NCCn1ncc2nc(NCc3ccc(Cl)c(Cl)c3)[nH]c(=O)c21)c1cnoc1 [Compound 86, N-(2-(5-((3,4-dichlorobenzyl)amino)-7-oxo-6,7-dihydro-1H-pyrazolo[4,3-d]pyrimidin-1-yl)ethyl)isoxazole-4-carboxamide]
16	16	16	8	> 64	>64	16	8	–	–	–	–	–	Cl.O=C(c1cccnc1)N1CCCC(Cn2ncc3nc(NCc4ccc(Cl)c(Cl)c4)[nH]c(=O)c32)C1 (stereo not drawn) [Compound 280, 5-((3,4-dichlorobenzyl)amino)-1-((1-nicotinoylpiperidin-3-yl)methyl)-1H-pyrazolo[4,3-d]pyrimidin-7(6H)-one hydrochloride]
